# Entries after “also recorded” stand apart in the source; their conditions may differ.
# How the values were obtained:
# dsDNACT [1] = assay: UV-Vis absorbance titration with dsDNACT; assay type: binding, calf; settings: addition of dsDNACT (< 2.5 eq of DNA); 12.3 µM dye in 10 mM Tris pH 7.6 and 50 mM KCI
# Procedure: UV-Vis titration measurements were performed on a Jasco V-650 UV-Vis spectrophotometer equipped with a Jasco PAC-743 temperature controlled cell holder and a Julabo F250 cooling system to maintain the temperature constant at 20°C during the measurements. UV-Vis titration measurements were performed in a 500 µL quarz cuvette with a pathlength of 1 cm at 20°C. The absorbance spectra were recorded from 400 nm to 800 nm.
# UV-Vis titration measurements were performed at a concentration of 12.3 µM of the dye in 10 mM Tris pH 7.6 and 50 mM KCI. Increasing aliquots of a 1.54 mM and 15.4 mM stock solutions of dsDNACT were successively added and the absorbance spectra were recorded in a range from 400-800 nm after 1 min of each addition. Three independent measurements were carried out. The presented spectra are the resulting mean of the three independent measurements.
# [2] = tested on: Escherichia coli (E. coli) NEB5α; assay: Bacteria culture and staining: growth and FACS labeling of E. coli; assay type: cell-based
# Procedure: Escherichia coli (E. coli) NEB5α (New England Biolabs) and antibiotic-resistant and -sensitive Klebsiella pneumoniae (K. pneumoniae) were cultured in Luria-Bertani (LB) solid medium (LB-Agar) overnight at 37°C. The source of the K. pneumoniae strands is of no relevance to the invention. The invention may be applied to all types of microorganisms (bacteria, viri, fungi etc.) or other cells, either contained within a sample or isolated from a sample. For staining, growth curve analysis and replating experiments bacteria were suspended in LB liquid medium at an OD600 nm of 1.0 and 800 µL were transferred into a culture tube containing 7.2 mL of LB liquid medium supplemented with DMSO or candidate dyes (2.5 µM) final concentration). Density of bacterial cultures was measured using an Ultrospec 10 Cell Density Meter with 600 nm LED source (Amersham Biosciences). For bacterial re-plating experiments bacteria were sampled at OD600 nm = 2.0 and 5 µL of indicated dilutions in LB-medium were spotted onto LB-agar plates (Fig. 5) or 100 µL were plated onto LB-agar plates followed by incubation at 37°C until colonies became visible.
# Bacteria and macrophages were washed with PBS prior to flow cytometry and analysed using a Guava easyCyte flow cytometer (Millipore). FCS3.0 files were analysed using Flowing Software (http://flowingsoftware.btk.fi/). Cells were first gated in the forward- / side-scatter plot to exclude debries, followed by quadrant gating in plots using the fluorescence channels as shown above. For discrimination of live/dead cell discrimination cells in PBS were supplemented with 0.4 µL/mL propidium-iodide (5 mg/ml solution) followed by 5 min incubation on ice. Propidium iodide signal was recorded in the yellow channel.
# dsDNACT [3] = assay: Thermal melting analysis of dsDNACT; assay type: binding, calf
# Procedure: Thermal melting analysis was performed on a Jasco J-810 spectropolarimeter equipped with a Jasco CDF-426S peliter controller and a Thermo Haake WKL 26 water recirculator. It was measured at a concentration of 45 µM of dsDNACT with and without 1.8 µM of 6-TramTO-3 in 10 mM Tris pH 7.5. The measurement was performed at 260 nm, with a response of 2 s, a band width of 10 nm, from 40-95°C, a slope of 2°C/min. Three independent measurements were recorded and the intensity normalized.
structure (smiles),measurement,setting,value
"CC[n+]1ccc(/C=C/C=C2\Sc3ccccc3N2CCCCCCn2cc(CN)nn2)c2ccccc21.[I-] [6-TramTO-3, 4-((1E,3Z)-3-(3-(6-(4-(aminomethyl)-1H-1,2,3-triazol-1-yl)hexyl)benzo[d]thiazol-2(3H)-ylidene)prop-1-en-1-yl)-1-ethylquinolin-1-ium iodide]",blue shift of the absorption maximum,dsDNACT [1],102 nm
same,bacterial growth in presence of dye,"[2]; 2.5 µM dye in LB medium, OD600 over time, liquid and solid medium",fully compatible with normal bacterial growth; also recorded: grew normally
same,fluorescent labeling of live bacteria (FACS),"[2]; 2.5 µM dye in culture medium, FACS at mid-exponential growth phase (OD600 = 2.0)",successfully fluorescently labeled
same,melting point of dsDNACT with addition of dye,"dsDNACT [3]; 45 µM dsDNACT with 1.8 µM dye in 10 mM Tris pH 7.5, dsDNACT alone 68.12°C",72.66 °C
same,ΔTm,"dsDNACT [3]; dsDNACT stabilization upon dye binding, 45 µM dsDNACT, 1.8 µM dye, 10 mM Tris pH 7.5",5 °C
